Assay results as given in patent publication US11135234B2, “Effective aminoglycoside antibiotic for multidrug-resistant bacteria” (MICROBIAL CHEMISTRY RESEARCH FOUNDATION, priority 2015, dated 2021).
≈ marks a conversion by molar mass, not a printed value.

Columns and labels:
[1] = system: P. aeruginosa PAO1/GN315; experiment: MIC, agar plate dilution method, P. aeruginosa PAO1/GN315; assay type: cell-based, Pseudomonas aeruginosa; details: for minimal inhibitory concentration (MIC): P. aeruginosa PAO1/GN315, AMK-resistant
In short: (§1)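 Read-out is the lowest compound concentration inhibiting growth (MIC, μg/mL), obtained by the agar plate dilution procedure of the Japan Society of Chemotherapy.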

[2] = system: K. pneumoniae ATCC BAA-1705; experiment: MIC, agar plate dilution method, K. pneumoniae ATCC BAA-1705; assay type: cell-based, Klebsiella pneumoniae; details: for minimal inhibitory concentration (MIC): K. pneumoniae ATCC BAA-1705, KPC-producing strain
In short: as §1

[3] = system: P. aeruginosa MSC01035; experiment: MIC, agar plate dilution method, P. aeruginosa MSC01035; assay type: cell-based, Pseudomonas aeruginosa; details: P. aeruginosa MSC01035, ABK-resistant
In short: as §1

[4] = system: S. aureus MF490; experiment: MIC, agar plate dilution method, S. aureus MF490; assay type: cell-based, Staphylococcus aureus; details: for minimal inhibitory concentration (MIC): S. aureus MF490, MRSA
In short: as §1

[5] = system: S. aureus RN4220; experiment: MIC, agar plate dilution method, S. aureus RN4220; assay type: cell-based, Staphylococcus aureus; details: for minimal inhibitory concentration (MIC): S. aureus RN4220, Sensitive bacterium
In short: as §1

[6] = system: A. baumannii ATCC BAA-1710; experiment: MIC, agar plate dilution method, A. baumannii ATCC BAA-1710; assay type: cell-based, Acinetobacter baumannii; details: for minimal inhibitory concentration (MIC): A. baumannii ATCC BAA-1710, MDRA
In short: as §1

[7] = system: S. marcescens TH-0447; experiment: MIC, agar plate dilution method, S. marcescens TH-0447; assay type: cell-based, Serratia marcescens; details: for minimal inhibitory concentration (MIC): S. marcescens TH-0447, AMK-resistant
In short: as §1

[8] = system: E. coli JM109/pMW218; experiment: MIC, agar plate dilution method, E. coli JM109/pMW218; assay type: cell-based, Escherichia coli; details: for minimal inhibitory concentration (MIC): E. coli JM109/pMW218, Sensitive bacterium
In short: as §1

[9] = system: K. pneumoniae ATCC BAA-2146; experiment: MIC, agar plate dilution method, K. pneumoniae ATCC BAA-2146; assay type: cell-based, Klebsiella pneumoniae; details: for minimal inhibitory concentration (MIC): K. pneumoniae ATCC BAA-2146, NDM-producing strain
In short: as §1

[10] = system: E. faecium ATCC19434; experiment: MIC, agar plate dilution method, E. faecium ATCC19434; assay type: cell-based, Enterococcus faecium; details: for minimal inhibitory concentration (MIC): E. faecium ATCC19434
In short: as §1

[11] = system: S. marcescens GN6944; experiment: MIC, agar plate dilution method, S. marcescens GN6944; assay type: cell-based, Serratia marcescens; details: S. marcescens GN6944, GM-resistant
In short: as §1

[12] = system: P. aeruginosa PAO1; experiment: MIC, agar plate dilution method, P. aeruginosa PAO1; assay type: cell-based, Pseudomonas aeruginosa; details: for minimal inhibitory concentration (MIC): P. aeruginosa PAO1, Sensitive bacterium
In short: as §1

[13] = system: P. aeruginosa MSC17707; experiment: MIC, agar plate dilution method, P. aeruginosa MSC17707; assay type: cell-based, Pseudomonas aeruginosa; details: for minimal inhibitory concentration (MIC): P. aeruginosa MSC17707, AMK-resistant
In short: as §1

[14] = system: S. aureus RN4220/pMS520; experiment: MIC, agar plate dilution method, S. aureus RN4220/pMS520; assay type: cell-based, Staphylococcus aureus; details: for minimal inhibitory concentration (MIC): S. aureus RN4220/pMS520, MRSA
In short: as §1

SMILES	minimal inhibitory concentration (MIC) [1]	minimal inhibitory concentration (MIC) [2]	minimal inhibitory concentration (MIC) [3]	minimal inhibitory concentration (MIC) [4]	minimal inhibitory concentration (MIC) [5]	minimal inhibitory concentration (MIC) [6]	minimal inhibitory concentration (MIC) [7]	minimal inhibitory concentration (MIC) [8]	minimal inhibitory concentration (MIC) [9]	minimal inhibitory concentration (MIC) [10]	minimal inhibitory concentration (MIC) [11]	minimal inhibitory concentration (MIC) [12]	minimal inhibitory concentration (MIC) [13]	minimal inhibitory concentration (MIC) [14]	further results
CN[C@@H]1[C@@H](O[C@@H]2C[C@H](O)[C@H](N)[C@@H](CO)O2)O[C@H]2C[C@@H](N)[C@@H](O[C@H]3[C@@H](F)[C@@H](O)[C@H](N)C[C@@H]3N)O[C@@H]2[C@@H]1O [Compound O5, 5,2″-dideoxy-5,3″-diepi-5-fluoroapramycin]	2 µg/mL (≈ 3.81 µM)	1 µg/mL (≈ 1.9 µM)	4 µg/mL (≈ 7.61 µM)	4 µg/mL (≈ 7.61 µM)	1 µg/mL (≈ 1.9 µM)	4 µg/mL (≈ 7.61 µM)	4 µg/mL (≈ 7.61 µM)	0.5 µg/mL (≈ 0.951 µM)	0.5 µg/mL (≈ 0.951 µM)	8 µg/mL (≈ 15.2 µM)	2 µg/mL (≈ 3.81 µM)	2 µg/mL (≈ 3.81 µM)	4 µg/mL (≈ 7.61 µM)	1 µg/mL (≈ 1.9 µM)	
CN[C@@H]1[C@@H](O[C@H]2O[C@H](CO)[C@@H](N)[C@@H](O)[C@H]2O)O[C@H]2C[C@@H](N)[C@@H](O[C@H]3[C@@H](O)[C@@H](O)[C@H](N)C[C@@H]3N)O[C@@H]2[C@@H]1O [Compound P4, 5,3″-diepiapramycin]	4 µg/mL (≈ 7.41 µM)	2 µg/mL (≈ 3.71 µM)	8 µg/mL (≈ 14.8 µM)	4 µg/mL (≈ 7.41 µM)	2 µg/mL (≈ 3.71 µM)	8 µg/mL (≈ 14.8 µM)	8 µg/mL (≈ 14.8 µM)	2 µg/mL (≈ 3.71 µM)	2 µg/mL (≈ 3.71 µM)	16 µg/mL (≈ 29.7 µM)	8 µg/mL (≈ 14.8 µM)	4 µg/mL (≈ 7.41 µM)	4 µg/mL (≈ 7.41 µM)	2 µg/mL (≈ 3.71 µM)	
CNC1C(OC2OC(C)C(N)C(O)C2O)OC2CC(N)C(OC3C(N)CC(N)CC3O)OC2C1O (centres unmarked) [Compound Q4, 6,6″-dideoxy-5-epiapramycin]	4 µg/mL (≈ 7.88 µM)	1 µg/mL (≈ 1.97 µM)	8 µg/mL (≈ 15.8 µM)	4 µg/mL (≈ 7.88 µM)	2 µg/mL (≈ 3.94 µM)	8 µg/mL (≈ 15.8 µM)	4 µg/mL (≈ 7.88 µM)	0.5 µg/mL (≈ 0.985 µM)	1 µg/mL (≈ 1.97 µM)	8 µg/mL (≈ 15.8 µM)	4 µg/mL (≈ 7.88 µM)	4 µg/mL (≈ 7.88 µM)	8 µg/mL (≈ 15.8 µM)	1 µg/mL (≈ 1.97 µM)	
CNC1C(O[C@H]2OC(C)[C@@H](N)[C@H](O)C2O)O[C@H]2CC(N)[C@@H](O[C@H]3CC[C@H](N)CC3N)OC2C1O (some centres unmarked) [Compound R6, 5,6,6″-trideoxyapramycin]															MIC ([1]; Pseudomonas aeruginosa, read-out: minimal inhibitory concentration (MIC), P. aeruginosa PAO1/GN315, AMK-resistant): 8 µg/mL (≈ 16.3 µM); MIC ([2]; Klebsiella pneumoniae, ATCCBAA1705, K. pneumoniae ATCC BAA-1705, KPC-producing strain, read-out: minimal inhibitory concentration (MIC)): 2 µg/mL (≈ 4.07 µM); MIC ([3]; Pseudomonas aeruginosa, read-out: minimal inhibitory concentration (MIC)): 16 µg/mL (≈ 32.5 µM); MIC ([4]; Staphylococcus aureus, MRSA, read-out: minimal inhibitory concentration (MIC)): 8 µg/mL (≈ 16.3 µM); MIC ([5]; Staphylococcus aureus, RN4220, S. aureus RN4220, Sensitive bacterium, read-out: minimal inhibitory concentration (MIC)): 2 µg/mL (≈ 4.07 µM); MIC ([6]; Acinetobacter baumannii, ATCCBAA1710, A. baumannii ATCC BAA-1710, MDRA, read-out: minimal inhibitory concentration (MIC)): 8 µg/mL (≈ 16.3 µM); MIC ([7]; Serratia marcescens, TH0447, S. marcescens TH-0447, AMK-resistant, read-out: minimal inhibitory concentration (MIC)): 8 µg/mL (≈ 16.3 µM); MIC ([8]; Escherichia coli, JM109/PMW218, E. coli JM109/pMW218, Sensitive bacterium, read-out: minimal inhibitory concentration (MIC)): 1 µg/mL (≈ 2.03 µM); MIC ([9]; Klebsiella pneumoniae, ATCCBAA2146, K. pneumoniae ATCC BAA-2146, NDM-producing strain, read-out: minimal inhibitory concentration (MIC)): 1 µg/mL (≈ 2.03 µM); MIC ([10]; Enterococcus faecium, ATCC19434, E. faecium ATCC19434, read-out: minimal inhibitory concentration (MIC)): 16 µg/mL (≈ 32.5 µM); MIC ([11]; Serratia marcescens, read-out: minimal inhibitory concentration (MIC)): 4 µg/mL (≈ 8.14 µM); MIC ([12]; Pseudomonas aeruginosa, PAO1, P. aeruginosa PAO1, Sensitive bacterium, read-out: minimal inhibitory concentration (MIC)): 8 µg/mL (≈ 16.3 µM); MIC ([13]; Pseudomonas aeruginosa, MSC17707, P. aeruginosa MSC17707, AMK-resistant, read-out: minimal inhibitory concentration (MIC)): 16 µg/mL (≈ 32.5 µM); MIC ([14]; Staphylococcus aureus, MRSA, read-out: minimal inhibitory concentration (MIC), S. aureus RN4220/pMS520, MRSA): 2 µg/mL (≈ 4.07 µM)
